# Measured values taken from US20250222009A1, “DINUCLEAR GOLD(I) COMPLEXES FOR TREATING CANCER” (KING FAHD UNIVERSITY OF PETROLEUM AND MINERALS, priority 2024, published 2025).
# Legend:
# Type in all cases: cell-based, human
# NOTCH1 = NOTCH1 surface expression, flow cytometry; settings: A549, 24 h
# Experimental: (§1) 2.0×10^5 A549 cells were seeded in 6-well plates in a complete medium and treated with the complex 3. Assay results were detected by flow cytometry on a BD FACSCanto II flow cytometer. Data were analyzed using BD FACSDiva v.8.0.1 software (BD Biosciences) unless otherwise indicated. Tumor cells were treated for 72 h with complex 3, then stained for 15 minutes with FITC Annexin-V (Thermo Fisher Scientific) and 7AAD (BD Pharmingen, Milan, Italy). Activated caspase-3,7 was detected using the CaspaTag Caspase-3,7 assay (Merck Millipore) after an incubation of 24 h with complex 3. For B-cell lymphoma/leukemia-2 protein (Bcl-2) and Bcl-2 associated x protein (Bax) analysis, cells were treated for 72 h with C3, then fixed and permeabilized (FIX & PERM Cell Fixation & Cell Permeabilization Kit, Life Technologies). […] The distribution of cells in different cell cycle phases was quantified using ModFit LT 4.0 software (Verity Software House, Topsham, ME, USA) (See: Sulaiman, A. A. A.; Casagrande, N.; Borghese, C.; Corona, G.; Isab, A. A.; Ahmad, S.; Aldinucci, D.; Altaf M. Design, Synthesis, and Preclinical Activity in Ovarian Cancer Models of New Phosphanegold(I)—N-Heterocyclic Carbene Complexes. J Med Chem 2022, 65, 14424-14440, which is incorporated herein by reference in its entirety). […]
# A549 cells [1] = experiment: Crystal violet staining cell viability; settings: A549, 72 h
# Experimental: 2.5×10^3 (PC3, MG63, MCF7) or 4.0×10^3 (A2780, A2780cis, A549) cells were seeded in 96-well microplates in 100 μL culture medium. Cells, allowed to adhere for 24 h, were then treated in triplicate with increasing concentrations of gold compounds. Cisplatin was included as a reference drug. Cell viability was evaluated using 3-(4,5-dimethylthiazol-2-yl)-2,5-diphenyltetrazolium bromide (MTT) assay (Sigma-Aldrich) after 72 h of treatment. Half maximal inhibitory concentrations (IC50), IC25, and IC75 were calculated using the CalcuSyn software version 2 (Biosoft, Ferguson, MO, USA) (See: Chou, T. C.; Talalay, P. Quantitative Analysis of Dose-Effect Relationships: The Combined Effects of Multiple Drugs or Enzyme Inhibitors. Adv. Enzyme Regul. 1984, 22, 27-55, which is incorporated herein by reference in its entirety). Fold resistance was calculated as the ratio of the IC50 of the A2780cis to that of the parental cell line A2780. Alternatively, cell viability was assayed by crystal violet staining (See: Feoktistova, M.; Geserick, P.; Leverkus, M. Crystal Violet Assay for Determining Viability of Cultured Cells. Cold Spring Harb Protoc 2016, 2016, pdb.prot087379, which is incorporated herein by reference in its entirety). […]
# A549 cells [2] = experiment: Annexin-V-FITC/7AAD apoptosis, flow cytometry; settings: A549, 72 h, 0.06-0.60 μM
# Experimental: as §1
# CD133 = CD133 surface expression, flow cytometry; settings: A549, 24 h
# Experimental: as §1
# caspase-3,7 = experiment: Caspase-3,7 activation (CaspaTag/FLICA), flow cytometry; settings: A549, 24 h
# Experimental: as §1
# [3] = system: A2780 ovarian cancer cells; experiment: MTT cytotoxicity assay, A2780; settings: 72 h, mean (SD)
# Experimental: The human epithelial ovarian cancer A2780 cell line and its cisplatin-resistant clone A2780cis were obtained from Sigma-Aldrich (Milano, Italy). A2780cis cells were continuously exposed to 1 μM cisplatin to maintain cisplatin resistance. A549 cells (Human non-small cell lung cancer), MCF7 (metastatic breast cancer), PC3 (highly aggressive metastatic prostate cancer), and MG63 (osteosarcoma) were obtained from the American Type Culture Collection (ATCC). Cells were authenticated in laboratory using the PowerPlex 16 HS System. A2780, A2780cis, and PC3 cells were cultured in RPMI-1640 medium; MG63 and MCF7 cells were cultured in DMEM, and A549 cells were cultured in F12 NUT-MIX. The culture medium contained about 10% fetal bovine serum (FBS) (Gibco, Thermo Fisher Scientific, Monza, Italy), about 1% (v/v) of penicillin (10,000 units/mL)-streptomycin (10 mg/mL), and about 1% (v/v) L-glutamine (200 mM) (all from Sigma-Aldrich). Cells were cultured at 37° C. in a 5% CO2, fully humidified atmosphere.
# 2.5×10^3 (PC3, MG63, MCF7) or 4.0×10^3 (A2780, A2780cis, A549) cells were seeded in 96-well microplates in 100 μL culture medium. Cells, allowed to adhere for 24 h, were then treated in triplicate with increasing concentrations of gold compounds. Cisplatin was included as a reference drug. Cell viability was evaluated using 3-(4,5-dimethylthiazol-2-yl)-2,5-diphenyltetrazolium bromide (MTT) assay (Sigma-Aldrich) after 72 h of treatment. Half maximal inhibitory concentrations (IC50), IC25, and IC75 were calculated using the CalcuSyn software version 2 (Biosoft, Ferguson, MO, USA) (See: Chou, T. C.; Talalay, P. Quantitative Analysis of Dose-Effect Relationships: The Combined Effects of Multiple Drugs or Enzyme Inhibitors. Adv. Enzyme Regul. 1984, 22, 27-55, which is incorporated herein by reference in its entirety). Fold resistance was calculated as the ratio of the IC50 of the A2780cis to that of the parental cell line A2780. Alternatively, cell viability was assayed by crystal violet staining (See: Feoktistova, M.; Geserick, P.; Leverkus, M. Crystal Violet Assay for Determining Viability of Cultured Cells. Cold Spring Harb Protoc 2016, 2016, pdb.prot087379, which is incorporated herein by reference in its entirety). Alternatively, after drug treatment, the culture Medium was removed, cells washed, fixed, and stained, and the Crystal Violet solution lasted 20 minutes (See: Sulaiman, A. A. A.; Casagrande, N.; Borghese, C.; Corona, G.; Isab, A. A.; Ahmad, S.; Aldinucci, D.; Altaf M. Design, Synthesis, and Preclinical Activity in Ovarian Cancer Models of New Phosphanegold(I)—N-Heterocyclic Carbene Complexes. J Med Chem 2022, 65, 14424-14440, which is incorporated herein by reference in its entirety).
# A549 cells [4] = experiment: Cell cycle analysis (propidium iodide, flow cytometry); settings: A549, 24 h, 0.06-0.60 μM
# Experimental: as §1
structure (smiles),measurement,setting,value
"CC(C)c1cccc(C(C)C)c1-n1ccn(-c2c(C(C)C)cccc2C(C)C)[c]1=[Au-][P+](CCNCC[P+]([Au-]=[c]1n(-c2c(C(C)C)cccc2C(C)C)ccn1-c1c(C(C)C)cccc1C(C)C)(C1CCCCC1)C1CCCCC1)(C1CCCCC1)C1CCCCC1 [Complex 3, [(Au(IPr))2(C28H24P2)](PF6)2]",NOTCH1 expression,NOTCH1,decreased in a dose-dependent manner
same,growth inhibition by crystal violet staining,A549 cells [1],growth inhibition
same,percentage of Annexin-V-positive cells (early apoptosis),A549 cells [2],increased in a dose-dependent manner
same,percentage of double stained Annexin-V/7AAD-positive cells (late apoptosis),A549 cells [2],increased in a dose-dependent manner
same,CD133 expression levels,CD133,reduced
same,"caspase-3,7 activation","caspase-3,7",activated
same,IC50,[3],110 nM
same,cells in G0/G1 phase of the cell cycle,A549 cells [4],accumulation
same,cells in S phase of the cell cycle,A549 cells [4],decrease
